Reference: US10183011B2, “Anti-depression compounds” (Board of Regents of the University of Texas System, priority 2009, dated 2019)

Columns and labels:
SNc dopaminergic neurons = experiment: MPTP-toxicity to SNc dopaminergic neurons, treatment started 24 hours after the last MPTP dose; type: in vivo, mouse (C57Bl/6); conditions: for dopaminergic axons in the striatum (TH staining): 20 mg/kg/day
Method: FIG. 29A and FIG. 29B. Neuroprotective efficacy of P7C3 and P7C3A20 from MPTP-toxicity to SNc dopaminergic neurons. FIG. 29A—Test compounds were evaluated by dose response assay for their ability to block MPTP-neurotoxicity in the SNc. […] VEH group contained 30 animals: 15 animals that received the P7C3A20/P7C3 vehicle, and 15 animals that received Dimebon vehicle (saline). […] Representative immunohistochemical pictures of TH-staining in the SNc are shown below the graph. Dosing is expressed as total mg/day, and was administered intraperitoneally in divided doses twice daily. Data are expressed as mean±SEM. […] P7C3A20 does so with greater effect, and Dimebon offers no protection. Striatal sections were obtained from the same mice used in FIG. 2, and compound treatment groups are from mice that received a dose of 20 mg/kg/d.
We compared the protective efficacy of our agents in the Tatton and Kish model of MPTP administration, which induces prolonged apoptotic death of SNc dopaminergic neurons lasting about 3 weeks after a short course of daily MPTP administration. Mice were treated daily for 5 days with 30 mg/kg/day free base MPTP. On the sixth day, 24 hours after receiving the fifth and final dose of MPTP, daily treatment with P7C3, P7C3A20, Dimebon or vehicle was initiated. […] Dose-response studies were conducted in which mice received twice daily doses of each compound (or vehicle) for the ensuing 21 days (FIG. 29A). […] At the end of the 21 day treatment period, mice were sacrificed by transcardial perfusion with 4% paraformaldehyde, and fixed brains were sectioned through the striatum and SNc at 30 μM intervals. Every fourth section (spaced 120 μM apart) was stained with antibodies specific to tyrosine hydroxylase (TH) (Abcam, rabbit anti-TH, 1:2500). The TH enzyme catalyzes the conversion of the amino acid L-tyrosine to L-3,4-dihydroxyphenylalanine (L-DOPA), which serves as the precursor for dopamine. TH staining thus provides a means to immunohistochemically identify dopaminergic neurons. By counting the number of TH+ cells in the SNc, we were able to assess the neuroprotective efficacy of the three chemicals following MPTP exposure. All microscopic analysis was performed by two investigators, blind to treatment group.
15 adult male C57Bl/6 mice were individually housed for one week and then injected daily for 5 days with 30 mg/kg/day (i.p.) free base MPTP (Sigma). On day 6, 24 hours after receiving the fifth and final dose of MPTP, daily treatment with P7C3, P7C3A20, Dimebon or vehicle was initiated. Mice were housed in disposable caging, and protective gear and precautions were implemented for handling MPTP in accordance with UT Southwestern Medical Center policy. Dose response studies were conducted in which mice received twice daily doses of each compound (or vehicle) by intraperitoneal injection for the following 21 days, after which mice were sacrificed by transcardial perfusion with 4% paraformaldehyde. Brains were dissected, fixed overnight in 4% paraformaldehyde, and cryoprotected in sucrose for freezing by standard procedures. Frozen brains were sectioned through the striatum and SNc at 30 uM intervals, and every fourth section (spaced 120 μM apart) was stained with antibodies directed against tyrosine hydroxylase (TH) (Abcam, rabbit anti-TH, 1:2500). Diaminobenzidine was used as a chromagen, and tissue was counter-stained with hematoxylin to aid in visualization of the neuroanatomy. Images were analyzed with a Nikon Eclipse 90i motorized research microscope with Plan Apo lenses coupled with Metamorph Image Acquisition software (Nikon). TH+ neurons were counted with Image J software (NIH) in every section by 2 blinded investigators and results were averaged and multiplied by the sectioning interval to determine the total number of TH+ neurons per SNc.

[1] = system: dopaminergic neurons in C. elegans; experiment: MPP+ toxicity to dopaminergic neurons in C. elegans; type: in vivo; conditions: for protection of dopaminergic neurons from MPP+: 10 μM, 5 mM MPP+ for 40 hrs
Method: FIG. 31. Neuroprotective efficacy of P7C3 and P7C3A20 for MPP^+ toxicity to dopaminergic neurons in C. elegans. Worms were treated with 5 mM MPP^+ for 40 hrs, with pre-incubation for 30 minutes with different concentrations of test compounds or vehicle. […] By contrast, GFP expression was lost after 40 hrs of MPP^+ exposure (unfilled arrow). […] 20 worms were analyzed per group, and each group was performed in triplicate. Data are expressed as mean±SEM.
Genes, metabolic signaling pathways, neurotransmitters and receptor pharmacology are highly conserved between C. elegans and vertebrates, and exposure of C. elegans to MPP^+ has been reported to selectively kill dopaminergic neurons and impair mobility. To investigate the neuroprotective efficacy of P7C3A20, P7C3 and Dimebon from MPP^+ toxicity in C. elegans, we monitored dopaminergic cell death in a transgenic strain of worms in which dopaminergic neurons fluoresce green by virtue of GFP expression driven by the dopaminergic neuron-specific promoter dat-1. […] Cephalic sensilla dopaminergic dendrites were observed under 40× magnification (AMG, Evos fl microscope), and GFP signal was followed from the nerve ring to the tip of the nose, following established protocols. If any part of a dendrite was absent, as evidenced by loss of GFP signal, it was counted as degraded. All analyses were performed blind to treatment group.
Synchronized L1 larvae were plated into each well of a 12-well plate (approximately 400 larvae per well) containing PBS, Vehicle or compounds, with or without 5 mM MPP^+ iodide (Sigma) freshly diluted in PBS. DMSO was used as vehicle (VEH) and the concentration in treatment groups was maintained below 1%. The assay solution ([…]) was incubated for 40 hrs at 20 degrees Celsius. The worms were then washed in dH2O and supernatant was aspirated. To examine dopaminergic neuron toxicity, worms were anesthetized (0.1% tricaine, 0.01% tetramizole) for 5 min and then transferred to microscope slides and coverslipped. Pictures were taken at 40× magnification (AMG, Evos fl microscope). Each experiment was conducted in triplicate with 10-20 worms counted per condition. For quantification, investigators were blind to treatment condition. Quantification was done by observing all four cephalic sensilla (CEP) dendrites, per standard protocol. Briefly, GFP fluorescence was visualized from the nerve ring to the tip of the nose, and if any portion of a dendrite was absent then it was counted as being degenerated.

SMILES	onset of efficacy, over VEH (SNc dopaminergic neurons; 1 mg/kg/day for 21 days) [%]	dopaminergic axons in the striatum (TH staining) (SNc dopaminergic neurons)	number of dopaminergic neurons in the SNc relative to normal mice not exposed to MPTP (SNc dopaminergic neurons; 20 mg/kg/day for 21 days)	onset of neuroprotective efficacy ([1]; 0.1 μM) [%]	protection of dopaminergic neurons from MPP+ [1]	enhanced survival of TH+ SNc neurons over VEH (SNc dopaminergic neurons; 5 mg/kg/day for 21 days)	protection relative to vehicle (SNc dopaminergic neurons; 20 mg/kg/day for 21 days) [%]	onset of neuroprotective efficacy ([1]; 1.0 μM) [%]	protection from MPTP (SNc dopaminergic neurons; any dose)	activity in the MPTP protection assay (SNc dopaminergic neurons; new analogs, 10 mice for each compound)
COc1cccc(NCC(F)Cn2c3ccc(Br)cc3c3cc(Br)ccc32)c1 (centres unmarked) [Example P7C3A20, N-(3-(3,6-dibromo-9H-carbazol-9-yl)-2-fluoropropyl)-3-methoxyaniline]	30	almost completely blocked depletion of dopaminergic axons in the striatum	about 85%	30	80%	–	–	–	–	–
OC(CNc1ccccc1)Cn1c2ccc(Br)cc2c2cc(Br)ccc21 (centres unmarked) [Example P7C3]	–	qualitatively notable protection	–	–	about 50%	about 40%	~60	35	–	–
Cc1ccc2c(c1)c1c(n2CCc2ccc(C)nc2)CCN(C)C1 [Dimebon, 2,3,4,5-Tetrahydro-2,8-dimethyl-5-(2-(6-methyl-3-pyridyl)ethyl)-1H-pyrido(4,3-b)indole, reference compound]	–	offered no protection of dopaminergic axons in the striatum	–	–	failed to protect dopaminergic neurons	–	–	–	failed to confer any measurable degree of protection from MPTP at any dose	–
OC(CNc1cccc2ccccc12)Cn1c2ccc(Cl)cc2c2cc(Cl)ccc21 (centres unmarked) [Example P7C3-S184]	–	–	–	–	–	–	–	–	–	inactive in both in vivo assays
